Target: T1, angiotensin II receptor (Bos taurus, UniProt P25104)
T1 construct: An A II receptor membrane fraction was prepared from bovine adrenal cortex; from tissue; host or cells: bovine adrenal cortex, receptor membrane fraction
T1 sequence (P25104 1-359): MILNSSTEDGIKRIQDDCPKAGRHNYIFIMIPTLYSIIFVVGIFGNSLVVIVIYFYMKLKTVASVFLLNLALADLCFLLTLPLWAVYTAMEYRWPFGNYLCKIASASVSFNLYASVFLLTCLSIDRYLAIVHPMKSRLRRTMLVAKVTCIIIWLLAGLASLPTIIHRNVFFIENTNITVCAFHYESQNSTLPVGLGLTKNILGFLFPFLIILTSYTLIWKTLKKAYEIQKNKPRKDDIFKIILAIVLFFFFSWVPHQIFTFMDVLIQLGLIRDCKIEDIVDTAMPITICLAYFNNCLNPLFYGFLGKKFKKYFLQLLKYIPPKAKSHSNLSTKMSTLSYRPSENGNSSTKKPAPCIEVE
Experiment: Inhibition of binding of angiotensin II to angiotensin receptors (125I-angiotensin II binding, receptor membrane fraction from bovine adrenal cortex)
Conditions: 125I-A II, room temperature, 1 hour; for inhibition at 10 µM: 1 × 10^-5 (M); for inhibition at 1 µM: 1 × 10^-6 (M)
Protocol: Inhibition of binding of angiotensin II to angiotensin receptors
An experiment of inhibition of angiotensin II (A (II) receptor binding was conducted according to the modified Douglas et al's method [Endocrinology,102, 685-695 (1978)]. An A II receptor membrane fraction was prepared from bovine adrenal cortex.
the compound of the present invention (10^-6 -10^-5 M) and ^125 I-angiotensin II (^125 I-A II) (1.85 kBq/50 μl) were added to the receptor membrane fraction and incubated at room temperature for 1 hour. Bound and free ^125 I-A II's were separated through a filter (Whatman GF/B filter), and the radioactivity of ^125 I-A II bound to the receptor was measured.

Row | SMILES | inhibition at 10 µM | inhibition at 1 µM
1 | CCCCNC(=O)c1cc(CCCC)n(Cc2ccc(-c3ccccc3-c3nn[nH]n3)cc2)n1 [compound 2] | 95% | 80%
2 | CCCCc1cc(C(=O)NCc2ccccc2)nn1Cc1ccc(-c2ccccc2-c2nn[nH]n2)cc1 [compound 6] | 95% | 83%
3 | CCCCc1cc(C(=O)NC2Cc3ccccc3C2)nn1Cc1ccc(-c2ccccc2-c2nn[nH]n2)cc1 [compound 8] | 95% | 86%
4 | CCCCc1cc(C(=O)NOCc2ccccc2)nn1Cc1ccc(-c2ccccc2-c2nn[nH]n2)cc1 [compound 9] | 96% | 73%
5 | CCCCc1cc(C(=O)NCCC)nn1Cc1ccc(-c2ccccc2-c2nn[nH]n2)cc1 [compound 13] | 99% | 85%
6 | CCCCc1cc(C(=O)NC(C)C)nn1Cc1ccc(-c2ccccc2-c2nn[nH]n2)cc1 [compound 16] | 95% | 91%
7 | CCCCCc1cc(C(=O)OCC)nn1Cc1ccc(-c2ccccc2-c2nn[nH]n2)cc1 [compound 18] | 88% | 54%
8 | CCCc1cc(C(=O)OCC)nn1Cc1ccc(-c2ccccc2-c2nn[nH]n2)cc1 [compound 19] | 90% | 62%
9 | CCCCc1cc(C(=O)OCC(F)(F)F)nn1Cc1ccc(-c2ccccc2-c2nn[nH]n2)cc1 [compound 20] | 94% | 66%
10 | CCCCc1cc(C(=O)OC)nn1Cc1ccc(-c2ccccc2-c2nn[nH]n2)cc1 [compound 22] | 90% | 61%
11 | CCCCc1cc(C(=O)N2CCCC2)nn1Cc1ccc(-c2ccccc2-c2nn[nH]n2)cc1 [compound 25] | 96% | 77%
12 | CCCCc1cc(C(=O)N2CCOCC2)nn1Cc1ccc(-c2ccccc2-c2nn[nH]n2)cc1 [compound 27] | 97% | 92%

The remaining lines, values ahead:

Row | inhibition at 10 µM | inhibition at 1 µM | SMILES
13 | 92% | 75% | CCCCc1cc(C(=O)OCC)nn1Cc1ccc(-c2ccccc2-c2nn[nH]n2)cc1 [compound 1]
14 | 94% | 81% | CCCCc1cc(C(=O)NC(C)(C)C)nn1Cc1ccc(-c2ccccc2-c2nn[nH]n2)cc1 [compound 3]
15 | 98% | 93% | CCCCc1cc(C(=O)NC2CCCCC2)nn1Cc1ccc(-c2ccccc2-c2nn[nH]n2)cc1 [compound 5]
16 | 97% | 91% | CCCCc1cc(C(=O)Nc2ccccc2)nn1Cc1ccc(-c2ccccc2-c2nn[nH]n2)cc1 [compound 7]
17 | 97% | 85% | CCCCc1cc(C(=O)NCC)nn1Cc1ccc(-c2ccccc2-c2nn[nH]n2)cc1 [compound 12]
18 | 93% | 75% | CCCCc1cc(C(N)=O)nn1Cc1ccc(-c2ccccc2-c2nn[nH]n2)cc1 [compound 14]
19 | 95% | 88% | CCCCc1cc(C(=O)NCCOC)nn1Cc1ccc(-c2ccccc2-c2nn[nH]n2)cc1 [compound 15]
20 | 98% | 91% | CCCCc1cc(C(=O)OC(C)C)nn1Cc1ccc(-c2ccccc2-c2nn[nH]n2)cc1 [compound 17]
21 | 89% | 38% | CCCCc1cc(C(=O)N2CCN(C(c3ccccc3)c3ccccc3)CC2)nn1Cc1ccc(-c2ccccc2-c2nn[nH]n2)cc1 [compound 31]
22 | 88% | 32% | CCCCc1cc(C(=O)N2CCC(C(c3ccccc3)c3ccccc3)CC2)nn1Cc1ccc(-c2ccccc2-c2nn[nH]n2)cc1 [compound 32]

From patent US5183899A, “Pyrazole derivative” (Takeda Chemical Industries, Ltd., priority 1989, dated 1993)
